The text below walks through data of ChEMBL document CHEMBL1201862, “PubChem BioAssay data set” (2004).

A word on the EC50: it is the midpoint of the concentration-response curve. In general, AC50 refers to the midpoint of the concentration-response curve, whichever way the signal moves. In general, IC50 refers to the concentration that inhibits the measured activity by half.

The structures appear in SMILES notation. Active and inactive are the calls of the source. Cut-off read from the data, not from the text of the source, for most assays here: actives have a measured EC50 and inactives only a lower limit.

Assay [1] addresses T1, Zinc finger protein mex-5 (Caenorhabditis elegans, UniProt Q9XUB2).
T1 sequence (Q9XUB2 whole entry): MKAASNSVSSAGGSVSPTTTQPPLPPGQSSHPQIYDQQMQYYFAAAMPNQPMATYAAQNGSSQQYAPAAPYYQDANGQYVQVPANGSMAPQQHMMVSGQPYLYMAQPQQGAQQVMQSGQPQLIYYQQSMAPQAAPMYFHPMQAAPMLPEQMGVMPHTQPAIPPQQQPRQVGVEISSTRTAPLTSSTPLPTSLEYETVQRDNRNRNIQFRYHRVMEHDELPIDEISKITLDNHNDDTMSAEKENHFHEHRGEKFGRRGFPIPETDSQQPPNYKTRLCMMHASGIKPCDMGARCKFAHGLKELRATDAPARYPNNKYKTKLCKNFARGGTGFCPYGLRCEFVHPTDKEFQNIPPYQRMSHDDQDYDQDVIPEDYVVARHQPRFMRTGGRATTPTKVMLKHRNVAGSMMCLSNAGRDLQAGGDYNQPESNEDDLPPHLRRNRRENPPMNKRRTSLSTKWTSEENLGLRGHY
The assay is described as follows: potency of MEX-5 RNA-binding blockers – biochemical, C. elegans, fluorescence polarization, dose response (AID 1960). Background: Fluorescence polarisation rises when a labelled molecule tumbles more slowly, as on binding a larger partner.

Assay [2] deals with T2, RNA-binding protein pos-1 (Caenorhabditis elegans, UniProt G5EF15).
T2 sequence (G5EF15 whole entry): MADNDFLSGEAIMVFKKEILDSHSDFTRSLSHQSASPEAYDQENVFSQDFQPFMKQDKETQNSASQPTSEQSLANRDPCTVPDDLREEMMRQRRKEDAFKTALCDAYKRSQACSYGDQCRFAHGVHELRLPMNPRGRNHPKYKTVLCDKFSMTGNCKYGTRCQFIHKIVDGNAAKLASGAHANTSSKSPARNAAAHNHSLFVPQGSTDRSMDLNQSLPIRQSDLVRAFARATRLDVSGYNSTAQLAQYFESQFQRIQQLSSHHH
The assay is described as follows: disruptors of C. elegans POS-1 RNA interaction – biochemical, fluorescence polarization, dose response (AID 1964).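 Note: purified POS-1 fused to maltose binding protein made in E. coli; potency of compounds blocking POS-1 binding to fluorescent RNA.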

The next assay has as its target T3, Protein RecA (Mycobacterium tuberculosis, UniProt P9WHJ3).
T3 sequence (P9WHJ3 whole entry): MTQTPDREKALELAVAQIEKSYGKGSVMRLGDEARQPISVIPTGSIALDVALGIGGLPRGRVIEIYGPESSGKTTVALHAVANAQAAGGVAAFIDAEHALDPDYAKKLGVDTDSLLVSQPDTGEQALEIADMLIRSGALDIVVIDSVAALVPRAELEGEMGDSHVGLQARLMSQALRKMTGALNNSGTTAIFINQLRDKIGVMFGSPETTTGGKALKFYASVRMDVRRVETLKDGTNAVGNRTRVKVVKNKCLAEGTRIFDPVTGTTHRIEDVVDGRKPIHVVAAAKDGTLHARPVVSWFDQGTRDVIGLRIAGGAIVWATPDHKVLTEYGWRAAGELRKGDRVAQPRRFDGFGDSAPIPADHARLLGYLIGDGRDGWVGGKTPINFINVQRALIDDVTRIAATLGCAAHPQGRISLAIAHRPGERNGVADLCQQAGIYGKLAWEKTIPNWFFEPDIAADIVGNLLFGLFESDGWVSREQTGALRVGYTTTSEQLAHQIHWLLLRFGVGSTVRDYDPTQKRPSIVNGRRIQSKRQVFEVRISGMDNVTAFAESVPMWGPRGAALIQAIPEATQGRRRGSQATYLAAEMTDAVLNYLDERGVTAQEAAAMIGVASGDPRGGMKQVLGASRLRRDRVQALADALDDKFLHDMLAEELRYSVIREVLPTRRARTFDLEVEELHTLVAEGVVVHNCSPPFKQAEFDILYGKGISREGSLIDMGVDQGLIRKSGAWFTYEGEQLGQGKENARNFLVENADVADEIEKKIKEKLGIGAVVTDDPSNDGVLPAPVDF
The assay is described as follows: Fluorescence Cell-Free Homogeneous Dose Retest to Identify Inhibitors of RecA-Intein Splicing Activity. [Related pubchem assays (depositor defined):AID2097, AID2223, AID489010, AID492950]. It counts as functional.

The target in assay [3] is T4, Replicative DNA helicase DnaB (Mycobacterium tuberculosis, UniProt P9WMR3).
T4 sequence (P9WMR3 whole entry): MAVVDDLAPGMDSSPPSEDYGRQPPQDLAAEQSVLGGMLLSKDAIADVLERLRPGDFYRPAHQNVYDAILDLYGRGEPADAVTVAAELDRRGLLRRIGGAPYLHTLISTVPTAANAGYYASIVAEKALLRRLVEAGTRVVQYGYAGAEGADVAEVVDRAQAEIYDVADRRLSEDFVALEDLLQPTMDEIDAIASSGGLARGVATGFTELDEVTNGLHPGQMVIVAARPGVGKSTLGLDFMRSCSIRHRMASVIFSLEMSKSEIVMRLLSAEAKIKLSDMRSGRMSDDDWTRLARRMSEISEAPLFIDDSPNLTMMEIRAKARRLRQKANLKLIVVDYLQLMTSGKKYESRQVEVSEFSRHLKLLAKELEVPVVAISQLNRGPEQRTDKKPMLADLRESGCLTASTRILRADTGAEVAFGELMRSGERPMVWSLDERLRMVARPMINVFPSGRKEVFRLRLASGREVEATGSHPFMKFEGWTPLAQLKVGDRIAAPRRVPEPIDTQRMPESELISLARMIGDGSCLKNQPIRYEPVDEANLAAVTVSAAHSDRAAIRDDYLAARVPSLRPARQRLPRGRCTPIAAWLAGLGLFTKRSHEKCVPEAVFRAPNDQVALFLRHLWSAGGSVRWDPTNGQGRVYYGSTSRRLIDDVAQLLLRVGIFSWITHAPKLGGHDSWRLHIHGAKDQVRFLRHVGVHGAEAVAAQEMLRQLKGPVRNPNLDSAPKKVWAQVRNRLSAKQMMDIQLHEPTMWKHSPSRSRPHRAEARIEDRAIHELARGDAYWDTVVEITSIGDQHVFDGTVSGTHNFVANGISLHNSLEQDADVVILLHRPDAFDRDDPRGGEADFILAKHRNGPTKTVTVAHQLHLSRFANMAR
The assay is described as follows: DnaB intein splicing inhibitors, dose response, biochemical, cell-free fluorescence (AID 449749). It counts as functional.

In assay [4] the target is Luciferin 4-monooxygenase (Photinus pyralis, UniProt P08659). The assay is described as follows: inhibition of purified Photinus pyralis luciferase – biochemical, luminescence, dose response (AID 1891).
The nature of assay [5]: Luminescence Cell-Based Dose Confirmation HTS to Identify Inhibitors of Platelet Dense Granule Release. [Related pubchem assays: 1663 (Primary HTS), 1678 (Summary of Project)]. It counts as functional.
For assay [6], the system named is Streptococcus sp. 'group A'. The assay is described as follows: Streptococcus pyogenes SK(-)GAS viability under kanamycin – luminescence, BacTiterGlo, confirmation, counter-screen for streptokinase expression inhibitor project, dose response (AID 1900). It counts as functional, organism-based. A general note: Counterscreens check selectivity or assay interference.

For a further assay, the system named is Streptococcus. The assay is described as follows: GAS UMAA2166 growth inhibition – luminescence, BacTiterGlo, counter-screen for streptokinase expression inhibitor project, dose response (AID 1915).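 Note: potency for reduction of bacterial viability or growth.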 It counts as functional, organism-based.
A short description of assay [7]: Luminescence Cell-Based Dose Retest to Confirm Inhibitors of Cancer Stem Cells. [Related pubchem assays (depositor defined):AID2717, AID2721]. It counts as functional. As to conditions: Homo sapiens.
The nature of assay [8]: alpha-synuclein stem-loop luciferase translation blockers – H4 neuroglioma cells, luminescence, confirmation (AID 1988). Format: functional, cell-based.
Assay [9] in a line: Luminescence Cell-Based Dose Response HTS to Identify Inhibitors of 5'UTR Stem-Loop Driven Prion Protein mRNA Translation in H4 Neuroglioblastoma Cells. [Related pubchem assays: 1827 (Project Summary), 1813 (Primary HTS)]. It counts as functional.
Another assay deals with T5, Protein skinhead-1 (Caenorhabditis elegans, UniProt P34707).
T5 sequence (P34707 whole entry): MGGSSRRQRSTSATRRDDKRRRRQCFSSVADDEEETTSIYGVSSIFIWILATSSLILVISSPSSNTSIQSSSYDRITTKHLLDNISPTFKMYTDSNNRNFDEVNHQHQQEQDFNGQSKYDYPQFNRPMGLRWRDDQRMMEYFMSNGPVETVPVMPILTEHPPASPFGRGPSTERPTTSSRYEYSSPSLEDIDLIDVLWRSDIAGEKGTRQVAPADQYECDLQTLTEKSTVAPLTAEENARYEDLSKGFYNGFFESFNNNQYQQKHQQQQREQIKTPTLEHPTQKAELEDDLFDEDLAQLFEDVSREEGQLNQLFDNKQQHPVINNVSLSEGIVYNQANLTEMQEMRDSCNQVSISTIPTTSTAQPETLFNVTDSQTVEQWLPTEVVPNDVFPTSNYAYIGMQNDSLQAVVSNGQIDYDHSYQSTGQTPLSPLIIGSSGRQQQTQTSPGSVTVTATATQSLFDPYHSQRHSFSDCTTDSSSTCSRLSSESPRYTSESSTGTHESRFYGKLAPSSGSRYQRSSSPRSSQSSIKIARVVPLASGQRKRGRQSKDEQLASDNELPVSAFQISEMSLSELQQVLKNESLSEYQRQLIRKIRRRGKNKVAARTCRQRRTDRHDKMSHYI
It counts as functional.

Sequence of Luciferin 4-monooxygenase (P08659 whole entry): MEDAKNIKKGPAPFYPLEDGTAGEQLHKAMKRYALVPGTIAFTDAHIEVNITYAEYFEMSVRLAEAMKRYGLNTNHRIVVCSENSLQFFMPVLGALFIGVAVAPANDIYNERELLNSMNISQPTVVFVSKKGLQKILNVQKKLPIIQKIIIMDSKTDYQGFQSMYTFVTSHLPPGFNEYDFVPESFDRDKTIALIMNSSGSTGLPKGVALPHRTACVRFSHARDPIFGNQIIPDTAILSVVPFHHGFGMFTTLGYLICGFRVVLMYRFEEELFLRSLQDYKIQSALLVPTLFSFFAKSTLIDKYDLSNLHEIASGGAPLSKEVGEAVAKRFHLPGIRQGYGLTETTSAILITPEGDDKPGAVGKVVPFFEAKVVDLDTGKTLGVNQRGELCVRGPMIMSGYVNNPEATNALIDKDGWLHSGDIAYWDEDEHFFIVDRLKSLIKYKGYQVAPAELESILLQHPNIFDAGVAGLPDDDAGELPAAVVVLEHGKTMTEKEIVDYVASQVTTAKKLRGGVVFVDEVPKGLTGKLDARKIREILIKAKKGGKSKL

On to `COc1ccc(/C=C2\N=C(C)OC2=O)cc1OC`, for which the EC50 in assay [1] and in assay [2] was > 300 µM (not active) each time.
`N#CC1=C(N)C(C#N)(C#N)[C@H](c2ccsc2)[C@H]2COCC=C12`: the EC50 in assay [1] and in [2] was > 300 µM (not active) in each case.
Consider `O=C(O)c1ccccc1-n1c(-c2ccccc2)cc2c1CCCC2=O`, for which the EC50 in assay [1] and in assay [2] was > 300 µM (not active) throughout.
For the compound `CCCc1c(C(=O)NNc2cccc(Cl)c2)cnn1-c1ccccc1`, at Protein RecA, the EC50 was > 380 µM (inactive). For the same compound, the AC50 in assay [3] is 10.7 µM (active).
For `CC1CCCCN1Cc1nc2c(c(=O)n(C)c(=O)n2C)n1CCCc1ccccc1` (stereo not given), the EC50 in assay [4] and in [5] was > 112 µM (not active) each time.
With `CCCc1cc(C(=O)NC2CCCC2)no1`, the EC50 in assay [4] and in [5] was > 112 µM (not active) in each case.
In the case of `CC(C)=CCC/C(C)=C/Cc1c(O)ccc(C(=O)/C=C/c2ccc(O)cc2)c1O` [XANTHOANGELOL], the figures for the EC50 (at Protein RecA; in assay [6]; in the assay with Streptococcus) were 88.4 µM (active), 1.05 µM (active) and 1.68 µM (active), respectively. Further, the AC50 in assay [3] is 3.19 µM (active); in assay [7], 9.49 µM (active).
`Cc1ccccc1C1CC(c2ccccc2OC(F)F)Nc2ncnn21` (stereo not given): the EC50 in assay [4] and in assay [5] was > 112 µM (not active) each time.
Regarding `Cc1cc(/C=C2/C(=O)NC(=O)N(c3ccc(Br)cc3)C2=O)c(C)n1C`, the EC50 in [1] was 53 µM (active); in [2] it was 52.2 µM (active).
Regarding `CCOC(=O)Nc1ccc2c(COC(=O)CNS(=O)(=O)c3cccc(Br)c3)cc(=O)oc2c1`, the EC50 in assay [4] and in assay [5] was > 112 µM (not active) throughout.
As for `Nc1cccc2c(O)cccc12`, the concentration giving a half-maximal response (EC50) at Protein RecA was 15.5 µM (active). Moreover, the AC50 in assay [3] is 22.1 µM (active).
As to `Cc1cccc(CCNC(=O)c2cc(S(=O)(=O)N3CCOCC3)cn2C)c1`, the EC50 in [4] and in assay [5] was > 112 µM (not active) each time.
As for `COc1cc(C(c2c(C)n[nH]c2O)c2c(C)n[nH]c2O)cc(OC)c1OC`, the EC50 on Protein RecA is 0.262 µM (active). The AC50 in assay [3] is 0.313 µM (active).
As for `COC(=O)c1c(NC(=O)/C=C/C(=O)O)sc(Cc2ccccc2)c1C`, the EC50 on Protein RecA is 7.93 µM (active). Besides, the AC50 in assay [3] is 3.23 µM (active).
As to `Cc1ccc(-c2[nH]ncc2/C=C(\C#N)C(=O)NC2CCCCC2)cc1`, the results for the EC50 in [8] and in [9] were > 120 µM (not active) and 71.5 µM (active), respectively. On Protein skinhead-1, the IC50 is > 100 µM (inactive).
In the case of `Cc1ccccc1CCNC(=O)C1CCN(S(=O)(=O)c2ccc(-n3cnnn3)cc2)CC1`, the EC50 in assay [4] and in [5] was > 112 µM (not active) each time.
As for `CCc1ccccc1N1C(=O)NC(=O)/C(=C\c2cc(C)n(C)c2C)C1=O`, the EC50 was > 300 µM (inconclusive) in assay [1] and > 300 µM (not active) in assay [2].
For `CC1(C)CC(=O)C2=C(C1)OC(N)=C(C#N)[C@@H]2c1ccccc1[N+](=O)[O-]`, in that order: 23.9 µM (active) and 22.3 µM (inconclusive).
Consider `Cc1ccc(C2CC(c3ccccc3OC(F)F)Nc3ncnn32)cc1` (stereo not given), for which the EC50 in assay [4] and in assay [5] was > 112 µM (not active) in each case.
`N#Cc1c(C#N)c(-c2ccccc2)n(-c2ccc(C(=O)O)cc2)c1N`: the EC50 in assay [1] and in assay [2] was > 300 µM (not active) each time.
As for `Cc1cccc(-n2cnc3c(sc4nc(N5CCOCC5)c5c(c43)CCCC5)c2=O)c1`, the EC50 was > 112 µM (not active) in assay [4] and 50 µM (active) in [5].
Take `Cc1ccc(S(=O)(=O)NCCC(=O)OCC(=O)NC(=O)c2cccn2C)cc1`: the EC50 in assay [4] and in assay [5] was > 112 µM (not active) each time.
`Oc1nc2ccc(Cl)cc2c(-c2ccccc2)c1SC(=S)N1CCCCC1`: the EC50 at Protein RecA was > 380 µM (inactive). The AC50 in assay [3] was > 380 µM (inactive).
